Our source for the T/C values is PubChem BioAssay AID328 (DTP/NCI, 2004).

The structures appear in SMILES notation. “And” between values parts separate entries of the source, which are not always exact repeats. Identical values can stand only once. Toxic doses and inconclusive results are not listed.

The subject of this assay is BDF1 mice, P388 leukemia ip, median survival T/C. The experiment in a line: NCI In Vivo Anticancer Drug Screen. Data for tumor model P388 Leukemia (intraperitoneal) in B6D2F1 (BDF1) mice. As to conditions: endpoint: median survival time, higher = longer survival. On the procedure: The antitumor activity of compounds was measured in mice bearing transplantable tumors. Survival or tumor size were measured and the results are expressed as the measurement made in the treated group (T) divided by the measurement made in the vehicle treated control group (C). The tumor model used in this assay is P388 Leukemia (intraperitoneal) in B6D2F1 (BDF1) mice

The mark [1] stands for this setting: dose: 100.0 mg/kg/injection, schedule: Q01DX009 (ip), vehicle: saline.
[2] abbreviates: dose: 100.0 mg/kg/injection, schedule: Q04DX003 (ip), vehicle: saline.
The mark [3] stands for this setting: dose: 200.0 mg/kg/injection, schedule: Q01DX009 (ip), vehicle: saline.
The mark [4] stands for this setting: dose: 200.0 mg/kg/injection, schedule: Q04DX003 (ip), vehicle: saline.
Setting [5] is: dose: 400.0 mg/kg/injection, schedule: Q04DX003 (ip), vehicle: saline.
Setting [6] is: dose: 25.0 mg/kg/injection, schedule: Q01DX009 (ip), vehicle: saline.
Where [7] appears, read: dose: 100.0 mg/kg/injection, schedule: Q04DX003 (ip), vehicle: saline with Tween-80.
Where [8] appears, read: dose: 200.0 mg/kg/injection, schedule: Q04DX003 (ip), vehicle: saline with Tween-80.
The mark [9] stands for this setting: dose: 400.0 mg/kg/injection, schedule: Q04DX003 (ip), vehicle: saline with Tween-80.
Where [10] appears, read: dose: 100.0 mg/kg/injection, schedule: Q01DX009 (ip), vehicle: saline with Tween-80.
Setting [11] is: dose: 200.0 mg/kg/injection, schedule: Q01DX009 (ip), vehicle: saline with Tween-80.
Setting [12] is: dose: 400.0 mg/kg/injection, schedule: Q01DX009 (ip), vehicle: saline with Tween-80.
The mark [13] stands for this setting: dose: 50.0 mg/kg/injection, schedule: Q01DX009 (ip), vehicle: saline with Tween-80.
The mark [14] stands for this setting: dose: 50.0 mg/kg/injection, schedule: Q01DX009 (ip), vehicle: saline.

`O=c1[n-]cc(F)c(=O)[nH]1.O=c1[n-]cc(F)c(=O)[nH]1.[NH2-].[NH2-].[Pt+4]`: the T/C by setting is: under setting [1], 100 % of control; under setting [2], 120 % of control and 104 % of control; under setting [3], 120 % of control; under setting [4], 113 % of control; under setting [5], 100 % of control.

Turning to `CCC[As](=O)(O)CCC`, the T/C is, setting by setting: (dose: 12.5 mg/kg/injection, schedule: Q01DX009 (ip), vehicle: saline) 115 % of control; under setting [6], 110 % of control; (dose: 33.0 mg/kg/injection, schedule: Q01DX009 (ip), vehicle: saline) 100 % of control; (dose: 75.0 mg/kg/injection, schedule: Q01DX009 (ip), vehicle: saline) 120 % of control.

As to `c1ccc(Sc2c(Sc3ccccc3)c(Sc3ccccc3)c(Sc3ccccc3)c(Sc3ccccc3)c2Sc2ccccc2)cc1`, the T/C under setting [7] is 99 % of control, the T/C under setting [8] is 101 % of control and the T/C under setting [9] is 90 % of control.

As to `Nc1ccccc1CCc1ccccc1N`, the T/C by setting is: under setting [10], 104 % of control; under setting [7], 95 % of control; under setting [11], 100 % of control; under setting [8], 95 % of control; under setting [12], 100 % of control; under setting [9], 108 % of control.

In the case of `COc1ccc(CN)cc1OC`, the T/C under setting [13] is 100 % of control, the T/C under setting [10] is 91 % of control and the T/C under setting [11] is 97 % of control.

With `Cc1cccc(NC(=O)Nc2ccc(Oc3ccccc3Cl)c(S(=O)(=O)O)c2)c1`, the T/C is 90 % of control under setting [6], 90 % of control under setting [14] and 90 % of control under setting [1].

As for `CCOC(=O)Nc1nc(NC(=O)OCC)c(Cl)nc1Cl`, the T/C by setting is: (dose: 12.5 mg/kg/injection, schedule: Q01DX009 (ip), vehicle: water) 113 % of control; (dose: 12.5 mg/kg/injection, schedule: Q04DX003 (ip), vehicle: water) 90 % of control and 104 % of control; (dose: 25.0 mg/kg/injection, schedule: Q01DX009 (ip), vehicle: water) 99 % of control; (dose: 25.0 mg/kg/injection, schedule: Q04DX003 (ip), vehicle: water) 92 % of control and 104 % of control; (dose: 50.0 mg/kg/injection, schedule: Q01DX009 (ip), vehicle: water) 111 % of control; (dose: 50.0 mg/kg/injection, schedule: Q04DX003 (ip), vehicle: water) 102 % of control. The T/C (dose: 100.0 mg/kg/injection, schedule: Q01DX009 (ip), vehicle: water) was 99 % of control; the T/C (dose: 100.0 mg/kg/injection, schedule: Q04DX003 (ip), vehicle: water) is 100 % of control and 101 % of control; the T/C (dose: 200.0 mg/kg/injection, schedule: Q01DX009 (ip), vehicle: water) is 90 % of control; the T/C (dose: 200.0 mg/kg/injection, schedule: Q04DX003 (ip), vehicle: water) is 94 % of control and 96 % of control; the T/C (dose: 400.0 mg/kg/injection, schedule: Q01DX009 (ip), vehicle: water) was 101 % of control; the T/C (dose: 400.0 mg/kg/injection, schedule: Q04DX003 (ip), vehicle: water) is 112 % of control. Further, where the note is “dose: 500.0 mg/kg/injection, schedule: Q04DX003 (ip), vehicle: water”, the T/C was 96 % of control.

Take `CCCCN(c1ccccc1)c1ncnc2c1cnn2C`: the T/C under setting [10] is 92 % of control and 100 % of control; the T/C under setting [7] is 100 % of control and 108 % of control; the T/C under setting [11] was 107 % of control; the T/C under setting [8] is 91 % of control and 100 % of control; the T/C under setting [12] is 96 % of control and 100 % of control; the T/C under setting [9] is 95 % of control and 100 % of control.

As to `C(#Cc1ccccc1)COCC1CO1` (stereo unspecified), the T/C was 116 % of control under setting [10], 90 % of control under setting [2], 90 % of control under setting [4] and 120 % of control under setting [5].

Turning to `CC(C(=O)O)c1ccc2c(c1)[nH]c1ccc(Cl)cc12` (stereo unspecified), the T/C reads like this: under setting [10], 89 % of control; under setting [11], 91 % of control.

As to `CC(C)C1(C(=O)NN)OC2(O)CCCCCN2C1=O` (stereo unspecified), the T/C by setting is: under setting [1], 90 % of control; under setting [3], 90 % of control; (dose: 400.0 mg/kg/injection, schedule: Q01DX009 (ip), vehicle: saline) 100 % of control.

On to `CCS(=O)C(C)(C)C` (stereo unspecified), for which the T/C by setting is: under setting [13], 102 % of control; under setting [10], 102 % of control; under setting [11], 102 % of control.

As for `O=C(CNC(=O)c1cccc(C(=O)NCC(=O)Nc2ccc(C3=NCCN3)cc2)c1)Nc1ccc(C2=NCCN2)cc1`, the T/C is, setting by setting: (dose: 8.2 mg/kg/injection, schedule: Q01DX009 (ip), vehicle: saline) 117 % of control; under setting [6], 169 % of control; under setting [14], 250 % of control.

Take `CC(=O)OC1C(OCc2ccccc2)OC(COCc2ccccc2)C(OC2OC(COCc3ccccc3)C(OCc3ccccc3)C(OCc3ccccc3)C2OCc2ccccc2)C1OCc1ccccc1` (stereo unspecified): the T/C runs as follows: (dose: 5.31 mg/kg/injection, schedule: Q01DX009 (ip), vehicle: Klucel (hydroxypropylcellulose) (HPC)) 100 % of control and 104 % of control; (dose: 10.62 mg/kg/injection, schedule: Q01DX009 (ip), vehicle: Klucel (hydroxypropylcellulose) (HPC)) 100 % of control; (dose: 21.25 mg/kg/injection, schedule: Q01DX009 (ip), vehicle: Klucel (hydroxypropylcellulose) (HPC)) 87 % of control and 100 % of control.

Consider `O=C(O)CC[S-].[Ag+]`, for which the T/C (dose: 25.0 mg/kg/injection, schedule: Q01DX009 (ip), vehicle: saline with Tween-80) is 90 % of control; the T/C under setting [13] was 90 % of control; the T/C under setting [10] was 86 % of control.

On to `NCCNc1c[nH]c(=O)[nH]c1=O`, for which the T/C is 110 % of control under setting [13], 103 % of control under setting [10] and 103 % of control under setting [11].

Turning to `CCOC(=S)SCc1nc2ccccc2[nH]1`, the T/C was 90 % of control under setting [2], 107 % of control under setting [4] and 105 % of control under setting [5].

As for `CC[N+](CC)(CC)CCCCCC[N+](CC)(CC)CC`, the T/C was 100 % of control (dose: 1.0 mg/kg/injection, schedule: Q01DX009 (ip), vehicle: water); 104 % of control (dose: 2.0 mg/kg/injection, schedule: Q01DX009 (ip), vehicle: water); 102 % of control and 103 % of control (dose: 2.0 mg/kg/injection, schedule: Q04DX003 (ip), vehicle: water); 97 % of control (dose: 4.0 mg/kg/injection, schedule: Q01DX009 (ip), vehicle: water); 116 % of control (dose: 4.0 mg/kg/injection, schedule: Q04DX003 (ip), vehicle: water); 102 % of control (dose: 6.0 mg/kg/injection, schedule: Q04DX003 (ip), vehicle: water). Also, the T/C (dose: 6.25 mg/kg/injection, schedule: Q04DX003 (ip), vehicle: water) was 123 % of control; the T/C (dose: 8.0 mg/kg/injection, schedule: Q01DX009 (ip), vehicle: water) is 104 % of control; the T/C (dose: 8.0 mg/kg/injection, schedule: Q04DX003 (ip), vehicle: water) is 100 % of control.

Turning to `Cc1c[n+]2ccccc2n1C`, the T/C was 100 % of control under setting [6] and 104 % of control under setting [14].

Turning to `OCCN(CCO)C(CO)(CO)CO`, the T/C runs as follows: (dose: 50.0 mg/kg/injection, schedule: Q01DX005 (ip), vehicle: saline) 100 % of control; (dose: 100.0 mg/kg/injection, schedule: Q01DX005 (ip), vehicle: saline) 98 % of control; (dose: 200.0 mg/kg/injection, schedule: Q01DX005 (ip), vehicle: saline) 104 % of control.

Turning to `N#C/C(=C\C=C\c1ccccc1)C(N)=O`, the T/C was 110 % of control under setting [13], 120 % of control under setting [10] and 120 % of control under setting [11].

For the compound `CCOP(=S)(N1CC1(C)C)N1CC1(C)C` (stereo unspecified), the T/C (dose: 264.0 mg/kg/injection, schedule: Q04DX003 (ip), vehicle: saline with Tween-80) was 229 % of control.

Consider `Cc1nc2nc(N)nc(N)c2nc1C`, for which the T/C was 100 % of control under setting [13]; 104 % of control under setting [10]; 95 % of control under setting [7]; 100 % of control under setting [11]; 95 % of control under setting [8].

Turning to `O=[N+]([O-])c1ccc(Oc2cc(Cl)c(Cl)cc2Cl)c([N+](=O)[O-])c1`, the T/C was 90 % of control (dose: 200.0 mg/kg/injection, schedule: Q01DX009 (ip), vehicle: saline sonified) and 90 % of control (dose: 400.0 mg/kg/injection, schedule: Q01DX009 (ip), vehicle: saline sonified).

Regarding `O=C(Nc1nnc(C(F)(F)F)s1)c1c(F)cccc1F`, under setting [13], the T/C was 92 % of control.
